Reference: PubChem BioAssay AID2060623 (Molecular Pharmacology Branch, DTP, NCI, 2025)
“And” between values parts separate entries of the source, which are not always exact repeats. Equal values may be shown once.

System: 227483-062-R1-J1-PDC complex spheroids with HUVEC/MSC, viability
Test: Anticancer human tumor 227483-062-R1-J1-PDC patient-derived pancreatic carcinoma cell line growth inhibition [CLK]
Conditions: for viability, T/C: stronger effect = lower value
Outline: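 Patient-derived tumor cells grown as complex spheroids with HUVEC endothelial cells and mesenchymal stem cells, treated with drug combinations. Concentrations descend in half-log steps from near clinical Cmax, or from 10 microM if Cmax unknown.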
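Further: spheroids exposed to compounds for seven days before readout.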
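Wherever viability, T/C is given: percent of DMSO vehicle control luminescence as 100% viability.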

`CC(CO)NC(=O)c1cc(-c2ccc(Cl)cc2)nn(-c2cnn(C)c2)c1=O` (centres undefined) was tested, and the viability, T/C (compound 0.0316 µM) was 100% and 88.3%, the viability, T/C (compound 0.1 µM) was 106% and 97.9% and the viability, T/C (compound 0.316 µM) was 95% and 100%. For the same compound, the viability, T/C (compound 1 µM) was 113% and 88.8%, the viability, T/C (compound 3.16 µM) was 88.7% and 108% and the viability, T/C (compound 10 µM) was 90.4% and 87%. For the same compound, the IC50 (curve of compound) was over 10 µM.

`C=C(F)C(=O)N1CCN(c2nc(OCC3CCCN3C)nc3c2CCN(c2cccc4cccc(Cl)c24)C3)CC1CC#N` (centres undefined) was tested, and the viability, T/C (compound 0.0316 µM) was 107% and 89.9%, the viability, T/C (compound 0.1 µM) was 108% and 97.9% and the viability, T/C (compound 0.316 µM) was 109% and 91.9%. The viability, T/C (compound 1 µM) was 113% and 122%, the viability, T/C (compound 3.16 µM) was 86.3% and 89% and the viability, T/C (compound 10 µM) was 19% and 28%. The IC50 (curve of compound) was 5.88 µM and 6.6 µM.

`CC1(C)CCC(CN2CCN(c3ccc(C(=O)NS(=O)(=O)c4ccc(NCC5CCOCC5)c([N+](=O)[O-])c4)c(Oc4cnc5[nH]ccc5c4)c3)CC2)=C(c2ccc(Cl)cc2)C1` + CN1CCN(c2cc(C(=O)Nc3cc4cc(-c5cnn(C)c5)ccc4cn3)ccn2)CC1 was tested, and the IC50 (curve of first compound, second compound 0.0316 µM) was 5.67 µM, the IC50 (curve of first compound, second compound 0.1 µM) was 4.23 µM and the IC50 (curve of first compound, second compound 0.316 µM) was under 0.0316 µM. It also gave an IC50 (curve of first compound, second compound 1 µM) of under 0.0316 µM, an IC50 (curve of first compound, second compound 3.16 µM) of under 0.0316 µM and an IC50 (curve of first compound, second compound 10 µM) of under 0.0316 µM. For the same compound, the viability, T/C (second compound 0.0316 µM, first compound 0.0316 µM) was 93.9%, the viability, T/C (second compound 0.0316 µM, first compound 0.1 µM) was 96.5% and the viability, T/C (second compound 0.0316 µM, first compound 0.316 µM) was 110%. The viability, T/C (second compound 0.0316 µM, first compound 1 µM) was 110%, the viability, T/C (second compound 0.0316 µM, first compound 3.16 µM) was 89.8% and the viability, T/C (second compound 0.0316 µM, first compound 10 µM) was 11.5%. For the same compound, the viability, T/C (second compound 0.1 µM, first compound 0.0316 µM) was 58%, the viability, T/C (second compound 0.1 µM, first compound 0.1 µM) was 58.1% and the viability, T/C (second compound 0.1 µM, first compound 0.316 µM) was 63.1%. It also gave a viability, T/C (second compound 0.1 µM, first compound 1 µM) of 62.7%, a viability, T/C (second compound 0.1 µM, first compound 3.16 µM) of 81.3% and a viability, T/C (second compound 0.1 µM, first compound 10 µM) of 6.59%. It also gave a viability, T/C (second compound 0.316 µM, first compound 0.0316 µM) of 5.04%, a viability, T/C (second compound 0.316 µM, first compound 0.1 µM) of 6.53% and a viability, T/C (second compound 0.316 µM, first compound 0.316 µM) of 5.51%. The viability, T/C (second compound 0.316 µM, first compound 1 µM) was 5.88%, the viability, T/C (second compound 0.316 µM, first compound 3.16 µM) was 6.54% and the viability, T/C (second compound 0.316 µM, first compound 10 µM) was 1.59%. The viability, T/C (second compound 1 µM, first compound 0.0316 µM) was 2.1%, the viability, T/C (second compound 1 µM, first compound 0.1 µM) was 2.74% and the viability, T/C (second compound 1 µM, first compound 0.316 µM) was 2.88%. For the same compound, the viability, T/C (second compound 1 µM, first compound 1 µM) was 2.08%, the viability, T/C (second compound 1 µM, first compound 3.16 µM) was 1.44% and the viability, T/C (second compound 1 µM, first compound 10 µM) was 0.36%. It also gave a viability, T/C (second compound 3.16 µM, first compound 0.0316 µM) of 3.39%, a viability, T/C (second compound 3.16 µM, first compound 0.1 µM) of 4.13% and a viability, T/C (second compound 3.16 µM, first compound 0.316 µM) of 2.75%. For the same compound, the viability, T/C (second compound 3.16 µM, first compound 1 µM) was 2.22%, the viability, T/C (second compound 3.16 µM, first compound 3.16 µM) was 2.43% and the viability, T/C (second compound 3.16 µM, first compound 10 µM) was 2.73%. It also gave a viability, T/C (second compound 10 µM, first compound 0.0316 µM) of 2.85%, a viability, T/C (second compound 10 µM, first compound 0.1 µM) of 2.4% and a viability, T/C (second compound 10 µM, first compound 0.316 µM) of 1.5%. It also gave a viability, T/C (second compound 10 µM, first compound 1 µM) of 4.14%, a viability, T/C (second compound 10 µM, first compound 3.16 µM) of 1.34% and a viability, T/C (second compound 10 µM, first compound 10 µM) of 0.39%.

With `Cn1ncnc1[C@H]1c2n[nH]c(=O)c3cc(F)cc(c23)N[C@@H]1c1ccc(F)cc1` the viability, T/C (compound 0.000316 µM) was 93.6% and 98%, the viability, T/C (compound 0.001 µM) was 127% and 115% and the viability, T/C (compound 0.00316 µM) was 91.9% and 102%. For the same compound, the viability, T/C (compound 0.01 µM) was 120% and 97%, the viability, T/C (compound 0.0316 µM) was 110% and 101% and the viability, T/C (compound 0.1 µM) was 104% and 98%. The IC50 (curve of compound) was over 0.1 µM.

For `CNC(=O)c1ccc(Nc2nc(OC3CCCC3)c3c(-c4ccc5nc(C)oc5c4)c[nH]c3n2)c(OC)c1`, the viability, T/C (compound 0.0316 µM) was 96.1% [middle of 12 runs], the viability, T/C (compound 0.1 µM) was 88.2% [middle of 12 runs] and the viability, T/C (compound 0.316 µM) was 85.1% [middle of 12 runs]. For the same compound, the viability, T/C (compound 1 µM) was 61.6% [middle of 11 runs], the viability, T/C (compound 3.16 µM) was 45.4% [middle of 12 runs] and the viability, T/C (compound 10 µM) was 42.9% [middle of 12 runs].
